Here are results for one compound from patent US20090269795A1, “Mutant alpha4betadelta GABAA receptor and methods of treating anxiety or irritability” (priority 2007, published 2009).

This test concerns α4β2γ2 receptors. Kind of test: Whole cell patch clamp of GABA-gated current, recombinant receptors in HEK-293 cells. In kind it is cell-based, human or mouse α4, rat β2, rat γ2. Conditions: 30 nM THP. The source says:
Recombinant receptors: Transfection—Plasmids obtained from S. Vicini (rat α1, α5, β2, β3 and γ2), P. Whiting (human α4 and δ) and N. L. Harrison (mouse α4) were propagated in E coli DH5α and prepared using Qiagen Maxi- or Midi-prep kits. (Rat, mouse and human α1, β2, β3 and γ2 subunits are identical or nearly identical.) All receptors were transfected at a 1:1:1 ratio, except α1β2γ2 (1:1:5)^12, α4βδ (5:1:5)^13 and α4β2γ2 (5:1:1). HEK-293 cells were maintained in medium (DMEM:Ham's F-12 1:1) supplemented with 10% fetal calf serum at 37° C. in a humid 5% CO2 atmosphere. Cells were transfected using calcium phosphate or Polyfect (Qiagen) and co-transfected with enhanced green fluorescent protein (ratio of DNA to eGFP was 6:1 or 10:1 depending on the DNA concentration) for visualization. α4-containing GABAA receptors required 2-3 d for maximal levels of expression; all other receptors were recorded 1-2 d after transfection. Because mouse α4 and human α4-containing receptors yielded the same results, the currents were averaged together.
Whole cell patch clamp recording—GABA-gated currents were recorded at room temperature (20-22° C.) at a holding potential of −50 mV^14. […] Currents were recorded using an Axopatch 1D amplifier (Axon Instruments) filtered at 2 kHz (four-pole Bessel filter) and detected at 10 kHz (pClamp 5.1). […]
Background: Patch clamp records ionic current or voltage across a cell membrane.

In the case of `CC(=O)[C@H]1CC[C@H]2[C@@H]3CC[C@H]4C[C@H](O)CC[C@]4(C)[C@H]3CC[C@]12C` [THP, 3α-OH-5α[β]-pregnan-20-one], the “effect on outward current” value is “either increased or had no effect”.
